Reference: patent US11178873B2, “Cyclic N-carboxamide compounds useful as herbicides” (FMC CORPORATION, priority 2015, dated 2021)

Key:
Assay type in all cases: in vivo
[1] = tested on: barnyardgrass (Echinochloa crus-galli); experiment: Test A postemergence, barnyardgrass; details: 0 to 100 scale, 0 no effect, 100 complete control
Method in brief: (§1)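 Preemergence treatment was a directed soil spray; postemergence plants were 2 to 10 cm tall at the one- to two-leaf stage. Compounds were formulated in solvent with surfactant and grown in loam/sand in the greenhouse. Injury was scored visually against untreated controls after ~10 d, on a 0 (no effect) to 100 (complete control) scale.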

corn (Zea mays) [2] = experiment: Test A postemergence, corn; details: 0 to 100 scale, 0 no effect, 100 complete control
Method in brief: as §1

[3] = tested on: velvetleaf (Abutilon theophrasti); experiment: Test A postemergence, velvetleaf; details: 1000 g ai/ha, 0 to 100 scale, 0 no effect, 100 complete control
Excerpt: (§2) Seeds of plant species selected from barnyardgrass (Echinochloa crus-galli), crabgrass, large (large crabgrass, Digitaria sanguinalis), kochia (Kochia scoparia), ragweed (common ragweed, Ambrosia elatior), morningglory (Ipomoea spp.), velvetleaf (Abutilon theophrasti), ryegrass, Italian (Italian ryegrass, Lolium multiflorum), foxtail, giant (giant foxtail, Setaria faberii), wheat (Triticum aestivum), corn (Zea mays), and pigweed (Amaranthus retroflexus), were planted into a blend of loam soil and sand and treated preemergence with a directed soil spray using test chemicals formulated in a non-phytotoxic solvent mixture which included a surfactant. At the same time, plants selected from these crop and weed species and also blackgrass (Alopecurus myosuroides), and galium (catchweed bedstraw, Galium aparine), were planted in pots containing the same blend of loam soil and sand and treated with postemergence applications of test chemicals formulated in the same manner. Plants ranged in height from 2 to 10 cm and were in the one- to two-leaf stage for the postemergence treatment. Treated plants and untreated controls were maintained in a greenhouse for approximately 10 d, after which time all treated plants were compared to untreated controls and visually evaluated for injury. Plant response ratings, summarized in Table A, are based on a 0 to 100 scale where 0 is no effect and 100 is complete control. A dash (-) response means no test result.

[4] = tested on: crabgrass, large (large crabgrass, Digitaria sanguinalis); experiment: Test A preemergence, crabgrass, large; details: 1000 g ai/ha, 0 to 100 scale, 0 no effect, 100 complete control
Excerpt: as §2

[5] = tested on: morningglory (Ipomoea spp.); experiment: Test A preemergence, morningglory; details: 1000 g ai/ha, 0 to 100 scale, 0 no effect, 100 complete control
Excerpt: as §2

[6] = tested on: pigweed (Amaranthus retroflexus); experiment: Test A postemergence, pigweed; details: 0 to 100 scale, 0 no effect, 100 complete control
Method in brief: as §1

[7] = tested on: velvetleaf (Abutilon theophrasti); experiment: Test A preemergence, velvetleaf; details: 1000 g ai/ha, 0 to 100 scale, 0 no effect, 100 complete control
Excerpt: as §2

[8] = tested on: pigweed (Amaranthus retroflexus); experiment: Test A preemergence, pigweed; details: 0 to 100 scale, 0 no effect, 100 complete control
Method in brief: as §1

[9] = tested on: barnyardgrass (Echinochloa crus-galli); experiment: Test A preemergence, barnyardgrass; details: 0 to 100 scale, 0 no effect, 100 complete control
Method in brief: as §1

[10] = tested on: foxtail, giant (giant foxtail, Setaria faberii); experiment: Test A postemergence, foxtail, giant; details: 0 to 100 scale, 0 no effect, 100 complete control
Method in brief: as §1

corn (Zea mays) [11] = experiment: Test A preemergence, corn; details: 1000 g ai/ha, 0 to 100 scale, 0 no effect, 100 complete control
Excerpt: as §2

[12] = tested on: wheat (Triticum aestivum); experiment: Test A preemergence, wheat; details: 1000 g ai/ha, 0 to 100 scale, 0 no effect, 100 complete control
Excerpt: as §2

[13] = tested on: foxtail, giant (giant foxtail, Setaria faberii); experiment: Test A preemergence, foxtail, giant; details: 0 to 100 scale, 0 no effect, 100 complete control
Method in brief: as §1

[14] = tested on: wheat (Triticum aestivum); experiment: Test A postemergence, wheat; details: 0 to 100 scale, 0 no effect, 100 complete control
Method in brief: as §1

[15] = tested on: crabgrass, large (large crabgrass, Digitaria sanguinalis); experiment: Test A postemergence, crabgrass, large; details: 1000 g ai/ha, 0 to 100 scale, 0 no effect, 100 complete control
Excerpt: as §2

[16] = tested on: blackgrass (Alopecurus myosuroides); experiment: Test A postemergence, blackgrass; details: 0 to 100 scale, 0 no effect, 100 complete control
Method in brief: as §1

[17] = tested on: sedge, umbrella (small-flower umbrella sedge, Cyperus difformis); experiment: Test B flooded paddy test, sedge, umbrella; details: Flood, 250 g ai/ha; scale 0 to 100 (0 no effect, 100 complete control); 13 to 15 d
Method in brief: (§3)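 Plants at the 2-leaf stage were flooded to 3 cm above soil, and test compounds were applied directly into the paddy water, which was held at that depth throughout. After 13 to 15 d in a greenhouse, injury was rated visually against untreated controls on a 0–100 scale (0 no effect, 100 complete control).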

[18] = tested on: ryegrass, Italian (Italian ryegrass, Lolium multiflorum); experiment: Test A preemergence, ryegrass, Italian; details: 0 to 100 scale, 0 no effect, 100 complete control
Method in brief: as §1

[19] = tested on: ryegrass, Italian (Italian ryegrass, Lolium multiflorum); experiment: Test A postemergence, ryegrass, Italian; details: 0 to 100 scale, 0 no effect, 100 complete control
Method in brief: as §1

[20] = tested on: barnyardgrass (Echinochloa crus-galli); experiment: Test B flooded paddy test, barnyardgrass; details: Flood, 250 g ai/ha; scale 0 to 100 (0 no effect, 100 complete control); 13 to 15 d
Method in brief: as §3

[21] = tested on: ragweed (common ragweed, Ambrosia elatior); experiment: Test A postemergence, ragweed; details: 0 to 100 scale, 0 no effect, 100 complete control
Method in brief: as §1

kochia (Kochia scoparia) [22] = experiment: Test A preemergence, kochia; details: 0 to 100 scale, 0 no effect, 100 complete control
Method in brief: as §1

kochia (Kochia scoparia) [23] = experiment: Test A postemergence, kochia; details: 0 to 100 scale, 0 no effect, 100 complete control
Method in brief: as §1

[24] = tested on: ragweed (common ragweed, Ambrosia elatior); experiment: Test A preemergence, ragweed; details: 0 to 100 scale, 0 no effect, 100 complete control
Method in brief: as §1

[25] = tested on: ducksalad (Heteranthera limosa); experiment: Test B flooded paddy test, ducksalad; details: Flood, 250 g ai/ha; scale 0 to 100 (0 no effect, 100 complete control); 13 to 15 d
Method in brief: as §3

rice (Oryza sativa) = experiment: Test B flooded paddy test, rice; details: Flood, 250 g ai/ha; scale 0 to 100 (0 no effect, 100 complete control); 13 to 15 d
Method in brief: as §3

[26] = tested on: galium (catchweed bedstraw, Galium aparine); experiment: Test A postemergence, galium; details: 0 to 100 scale, 0 no effect, 100 complete control
Method in brief: as §1

With O=C(Nc1ccccc1F)N1C(=O)OCC1c1ccc(F)c(F)c1 (stereo not drawn) [Compound 3, 4-(3,4-difluorophenyl)-N-(2-fluorophenyl)-2-oxo-3-oxazolidinecarboxamide] the “Plant response rating, Barnyardgrass” value ([1]; 1000 g ai/ha) was 20, the “Plant response rating, Corn” value (corn (Zea mays) [2]; 1000 g ai/ha) was 0 and the “Plant response rating, Velvetleaf” value [3] was 0. The “Plant response rating, Crabgrass, Large” value [4] was 90, the “Plant response rating, Morningglory” value [5] was 0 and the “Plant response rating, Pigweed” value ([6]; 1000 g ai/ha) was 0. The “Plant response rating, Velvetleaf” value [7] was 0, the “Plant response rating, Pigweed” value ([8]; 1000 g ai/ha) was 0 and the “Plant response rating, Barnyardgrass” value ([9]; 1000 g ai/ha) was 0. The “Plant response rating, Foxtail, Giant” value ([10]; 1000 g ai/ha) was 40, the “Plant response rating, Corn” value (corn (Zea mays) [11]) was 0 and the “Plant response rating, Wheat” value [12] was 0. For the same compound, the “Plant response rating, Foxtail, Giant” value ([13]; 1000 g ai/ha) was 50, the “Plant response rating, Wheat” value ([14]; 1000 g ai/ha) was 0 and the “Plant response rating, Crabgrass, Large” value [15] was 80.
With CN1CC(c2ccc(C(F)(F)F)cc2)N(C(=O)Nc2ccccc2F)C1=O (stereo not drawn) [Compound 13] the “Plant response rating, Barnyardgrass” value ([1]; 31 g ai/ha) was 0, the “Plant response rating, Barnyardgrass” value ([1]; 125 g ai/ha) was 0 and the “Plant response rating, Corn” value (corn (Zea mays) [2]; 31 g ai/ha) was 0. For the same compound, the “Plant response rating, Corn” value (corn (Zea mays) [2]; 125 g ai/ha) was 0, the “Plant response rating, Pigweed” value ([6]; 31 g ai/ha) was 0 and the “Plant response rating, Pigweed” value ([6]; 125 g ai/ha) was 0. The “Plant response rating, Blackgrass” value ([16]; 31 g ai/ha) was 0, the “Plant response rating, Blackgrass” value ([16]; 125 g ai/ha) was 0 and the “Plant response rating, Pigweed” value ([8]; 31 g ai/ha) was 0. For the same compound, the “Plant response rating, Pigweed” value ([8]; 125 g ai/ha) was 0, the “Plant response rating, Barnyardgrass” value ([9]; 31 g ai/ha) was 0 and the “Plant response rating, Barnyardgrass” value ([9]; 125 g ai/ha) was 0. The “Plant response rating, Sedge, Umbrella” value [17] was 0, the “Plant response rating, Ryegrass, Italian” value ([18]; 31 g ai/ha) was 0 and the “Plant response rating, Ryegrass, Italian” value ([18]; 125 g ai/ha) was 0. For the same compound, the “Plant response rating, Foxtail, Giant” value ([10]; 31 g ai/ha) was 0, the “Plant response rating, Foxtail, Giant” value ([10]; 125 g ai/ha) was 0 and the “Plant response rating, Ryegrass, Italian” value ([19]; 31 g ai/ha) was 0. The “Plant response rating, Ryegrass, Italian” value ([19]; 125 g ai/ha) was 0, the “Plant response rating, Barnyardgrass” value [20] was 10 and the “Plant response rating, Ragweed” value ([21]; 31 g ai/ha) was 0. For the same compound, the “Plant response rating, Ragweed” value ([21]; 125 g ai/ha) was 0, the “Plant response rating, Kochia” value (kochia (Kochia scoparia) [22]; 31 g ai/ha) was 0 and the “Plant response rating, Kochia” value (kochia (Kochia scoparia) [22]; 125 g ai/ha) was 0. For the same compound, the “Plant response rating, Kochia” value (kochia (Kochia scoparia) [23]; 31 g ai/ha) was 0, the “Plant response rating, Kochia” value (kochia (Kochia scoparia) [23]; 125 g ai/ha) was 0 and the “Plant response rating, Foxtail, Giant” value ([13]; 31 g ai/ha) was 0. The “Plant response rating, Foxtail, Giant” value ([13]; 125 g ai/ha) was 0, the “Plant response rating, Ragweed” value ([24]; 31 g ai/ha) was 0 and the “Plant response rating, Ragweed” value ([24]; 125 g ai/ha) was 0. The “Plant response rating, Ducksalad” value [25] was 70, the “Plant response rating, Rice” value (rice (Oryza sativa)) was 0 and the “Plant response rating, Wheat” value ([14]; 31 g ai/ha) was 0. For the same compound, the “Plant response rating, Wheat” value ([14]; 125 g ai/ha) was 0, the “Plant response rating, Galium” value ([26]; 31 g ai/ha) was 0 and the “Plant response rating, Galium” value ([26]; 125 g ai/ha) was 0.
